Data on 67 compounds can be found in patent publication US9090600B2, “Fungicidal 4-substituted-3-{phenyl[(heterocyclylmethoxy)imino]methyl}-1,2,4-oxadizol-5(4H)-one derivatives” (BAYER INTELLECTUAL PROPERTY GMBH, priority 2011, dated 2015).

The structures appear in SMILES notation. Marks after values point to notes of the source that are not given here.

For this data set the following is noted: pH 2.7.
Usually LogP stands for a log measure of how a compound divides between an organic and an aqueous phase. High values mean a more lipophilic compound, low ones a more hydrophilic compound. For the compound `Nc1cccc(CON=C(c2ccccc2)c2noc(=O)[nH]2)n1` (mixture of isomers) [Example 96], the LogP is 1.2 [a].

In the case of `Cc1cccc(C(=NOCc2cccc(N)n2)c2noc(=O)[nH]2)c1` (mixture of isomers) [Example 121], the LogP was 1.47 [a].

For `C#CCCOC(=O)Nc1cccc(CON=C(C(N)=NO)c2ccccc2)n1` (mixture of isomers) [Example V-1], the log partition coefficient (LogP) is 2.1 [a].

For the compound `CC(C)(C)OC(=O)Nc1cccc(CON=C(C(N)=NO)c2ccccc2F)n1` (mixture of isomers) [Example V-5], the LogP was 2.68 [a].

In the case of `COc1cccc(C(=NOCc2cccc(N)n2)C(N)=NO)c1` (mixture of isomers) [Example V-6], the LogP was 0.58 [a].

On to `Cc1cccc(C(=NOCc2cccc(N)n2)C(N)=NO)c1` (mixture of isomers) [Example V-7], for which the LogP was 0.75 [a].

For `CC(C)(C)OC(=O)Nc1cccc(CON=C(C(N)=NO)c2ccc(F)cc2)n1` (mixture of isomers) [Example V-8], the LogP was 2.68 [a].

With `NC(=NO)C(=NOCc1cccc(N)n1)c1ccccc1` (mixture of isomers) [Example V-9], the LogP was 0.39 [a].

Consider `NC(=NO)C(=NOCc1csc(N)n1)c1ccccc1Cl` (mixture of isomers) [Example V-10], for which the LogP is 0.73 [a].

Regarding `CC(C)(C)OC(=O)Nc1cccc(CON=C(C(N)=NO)c2ccccc2)n1` (mixture of isomers) [Example V-11], the LogP was 2.54 [a].

As to `NC(=NO)C(=NOCc1cccc(N)n1)c1cccc(F)c1` (mixture of isomers) [Example V-12], the lipophilicity (LogP) was 0.56 [a].

Regarding `COc1ccc(C(=NOCc2cccc(NC(=O)OC(C)(C)C)n2)C(N)=NO)cc1` (mixture of isomers) [Example V-13], the LogP is 2.51 [a].

Regarding `CC(C)(C)OC(=O)Nc1cccc(CON=C(C(N)=NO)c2ccccc2)n1` (mixture of isomers) [Example V-14], the LogP is 2.57 [a].

In the case of `Cc1ccc(C(=NOCc2csc(N)n2)C(N)=NO)cc1` (mixture of isomers) [Example V-15], the LogP was 0.89 [a].

As to `CC(C)C1(C(=O)Nc2cccc(CO/N=C(/c3ccccc3)c3noc(=O)n3C)n2)CC1(Cl)Cl` (racemic) [Example 371], the LogP was 4.35 [a].

For the compound `Cc1ccc(/C(=N/OCc2csc(NC(=O)C3COc4ccccc4O3)n2)c2noc(=O)n2C)cc1` (racemic) [Example 392], the LogP was 3.9 [a].

On to `CC#CCC(C)OC(=O)Nc1cccc(CO/N=C(/c2ccccc2)c2noc(=O)n2C)n1` (racemic) [compound 455], for which the LogP is 3.89 [a].

`CCCCC(CC)COC(=O)Nc1cccc(CO/N=C(/c2ccccc2)c2noc(=O)n2C)n1` (racemic) [compound 463]: the LogP was 5.54 [a].

In the case of `Cn1c(/C(=N\OCc2cccc(NC(=O)OCC3COC(=O)O3)n2)c2ccccc2)noc1=O` (racemic) [compound 474], the LogP was 2.75 [a].

Regarding `CC(CC1CC1)OC(=O)Nc1cccc(CO/N=C(/c2ccccc2)c2noc(=O)n2C)n1` (racemic) [compound 475], the LogP was 4.32 [a].

Turning to `C=CCC(C)OC(=O)Nc1cccc(CO/N=C(/c2ccccc2)c2noc(=O)n2C)n1` (racemic) [compound 479], the LogP is 4.01 [a].

For the compound `C#CCCOC(=O)Nc1cccc(CO/N=C(/c2ccccc2)c2noc(=O)[nH]2)n1` [Example 22], the LogP is 3.09 [a].

Turning to `Cn1c(/C(=N\OCc2csc(NC(=O)COc3ccccc3F)n2)c2ccccc2)noc1=O` [Example 28], the LogP is 3.51 [a].

On to `COc1ccccc1OCC(=O)Nc1cccc(CO/N=C(/c2ccccc2)c2noc(=O)n2C)n1` [Example 31], for which the LogP is 3.8 [a].

Consider `Cn1c(/C(=N\OCc2csc(NC(=O)COc3ccc(F)cc3)n2)c2ccccc2)noc1=O` [Example 38], for which the LogP was 3.53 [a].

Consider `CCCCCOC(=O)Nc1nc(CO/N=C(/c2ccc(C)cc2)c2noc(=O)n2C)cs1` [Example 41], for which the LogP was 4.41 [a].

For the compound `CC(C)CCCOC(=O)Nc1cccc(CO/N=C(/c2ccccc2)c2noc(=O)n2C)n1` [Example 45], the LogP was 4.81 [a].

For the compound `Cn1c(/C(=N\OCc2cccc(NC(=O)OCCc3cccc(Br)c3)n2)c2ccccc2)noc1=O` [Example 49], the lipophilicity (LogP) is 4.61 [a].

Consider `CC(Cc1ccccc1)OC(=O)Nc1cccc(CO/N=C(/c2ccccc2)c2noc(=O)n2C)n1` (stereo not shown) [Example 60], for which the LogP was 4.49 [a].

For the compound `CC(Oc1cccc(Cl)c1)C(=O)Nc1cccc(CO/N=C(/c2ccccc2)c2noc(=O)n2C)n1` (stereo not shown) [Example 64], the LogP was 4.38 [a].

Regarding `Cn1c(/C(=N\OCc2cccc(NC(=O)COc3ccc(Br)cc3)n2)c2ccccc2)noc1=O` [Example 65], the LogP was 4.2 [a].

With `Cn1c(/C(=N\OCc2cccc(NC(=O)COc3ccc(F)cc3)n2)c2ccccc2)noc1=O` [Example 66], the LogP is 3.73 [a].

In the case of `COc1cccc(OC(C)C(=O)Nc2cccc(CO/N=C(/c3ccccc3)c3noc(=O)n3C)n2)c1` (stereo not shown) [Example 69], the LogP was 3.97 [a].

Turning to `Cc1ccccc1OCC(=O)Nc1cccc(CO/N=C(/c2ccccc2)c2noc(=O)n2C)n1` [Example 76], the LogP is 4.17 [a].

On to `Cn1c(/C(=N\OCc2csc(N)n2)c2ccccc2Cl)noc1=O` [Example 90], for which the lipophilicity (LogP) is 1.72 [a].

As to `Cn1c(/C(=N\OCc2cccc(NC(=O)COC3CCCC3)n2)c2ccccc2)noc1=O` [Example 94], the LogP was 4.04 [a].

For `Cn1c(/C(=N\OCc2cccc(NC(=O)OC(C)(C)C)n2)c2ccccc2F)noc1=O` [Example 97], the LogP was 3.92 [a].

Consider `Cn1c(/C(=N\OCc2cccc(NC(=O)COc3cccc(Cl)c3)n2)c2ccccc2)noc1=O` [Example 105], for which the LogP was 4.1 [a].

Take `COc1ccccc1OC(C)C(=O)Nc1cccc(CO/N=C(/c2ccccc2)c2noc(=O)n2C)n1` (stereo not shown) [Example 115]: the LogP is 4.15 [a].

In the case of `Cn1c(/C(=N\OCc2cccc(NC(=O)COc3ccccc3F)n2)c2ccccc2)noc1=O` [Example 125], the LogP is 3.76 [a].

Turning to `CC(OCc1ccccc1)C(=O)Nc1nc(CO/N=C(/c2ccccc2)c2noc(=O)n2C)cs1` (stereo not shown) [Example 126], the LogP is 3.85 [a].

For the compound `Cc1cccc(OC(C)C(=O)Nc2cccc(CO/N=C(/c3ccccc3)c3noc(=O)n3C)n2)c1` (stereo not shown) [Example 128], the LogP is 4.35 [a].

For `Nc1cccc(CON=C(c2cccc(F)c2)c2noc(=O)[nH]2)n1` [Example 129], the LogP is 1.35 [a].

For the compound `CC(C)(C)OC(=O)Nc1cccc(CO/N=C(/c2ccccc2)c2noc(=O)[nH]2)n1` [Example 135], the log partition coefficient (LogP) was 3.76 [a].

As to `COc1cccc(/C(=N/OCc2cccc(N(C(=O)OC(C)(C)C)C(=O)OC(C)(C)C)n2)c2noc(=O)n2C)c1` [Example 141], the LogP was 4.44 [a].

In the case of `COc1cccc(/C(=N/OCc2cccc(NC(=O)OC(C)CC(C)C)n2)c2noc(=O)n2C)c1` (stereo not shown) [Example 149], the LogP was 4.72 [a].

Consider `CCCCCOC(=O)Nc1nc(CO/N=C(/c2cccc(F)c2)c2noc(=O)n2C)cs1` [Example 150], for which the LogP was 4.19 [a].

With `CC(OCc1ccccc1)C(=O)Nc1cccc(CO/N=C(/c2ccccc2)c2noc(=O)n2C)n1` (stereo not shown) [Example 156], the LogP was 4.15 [a].

For `COc1ccc(/C(=N/OCc2cccc(N)n2)c2noc(=O)n2C)cc1` [Example 157], the LogP was 1.35 [a].

Regarding `Cn1c(/C(=N\OCc2csc(NC(=O)COc3ccccc3Br)n2)c2ccccc2)noc1=O` [Example 159], the LogP is 3.89 [a].

Consider `CCCCC(C)(C)C(=O)Nc1nc(CO/N=C(/c2ccccc2)c2noc(=O)n2C)cs1` [Example 160], for which the LogP was 4.48 [a].

`Cn1c(/C(=N\OCc2cccc(NC(=O)SC(C)(C)C)n2)c2ccccc2)noc1=O` [Example 162]: the LogP is 4.39 [a].

In the case of `Cn1c(/C(=N\OCc2csc(NC(=O)COc3ccc(Cl)cc3)n2)c2ccccc2)noc1=O` [Example 164], the log partition coefficient (LogP) is 3.85 [a].

Consider `CCCCC(=O)Nc1nc(CO/N=C(/c2ccc(C)cc2)c2noc(=O)n2C)cs1` [Example 169], for which the LogP was 3.7 [a].

Take `Cn1c(/C(=N\OCc2cccc(NC(=O)c3ccc(I)cc3)n2)c2ccccc2)noc1=O` [Example 174]: the LogP is 4.29 [a].

As to `CC(Oc1cccc(Br)c1)C(=O)Nc1cccc(CO/N=C(/c2ccccc2)c2noc(=O)n2C)n1` (stereo not shown) [Example 179], the lipophilicity (LogP) is 4.46 [a].

As for `COc1ccccc1C(=O)Nc1cccc(CO/N=C(/c2ccccc2)c2noc(=O)n2C)n1` [Example 181], the LogP is 3.87 [a].

With `CCCCOC(=S)Nc1cccc(CO/N=C(/c2ccccc2)c2noc(=O)n2C)n1` [Example 183], the LogP is 4.53 [a].

In the case of `CCC1(C(=O)Nc2cccc(CO/N=C(/c3ccccc3)c3noc(=O)n3C)n2)C(C)C1(Cl)Cl` (stereo not shown) [Example 189], the LogP was 4.35 [a].

`CC(C)(C)OC(=O)Nc1cccc(CO/N=C(\c2noc(=O)[nH]2)c2ccccc2F)n1` [Example 193]: the lipophilicity (LogP) was 3.68 [a].

Consider `Cn1c(/C(=N\OCc2csc(NC(=O)COCc3ccccc3)n2)c2ccccc2)noc1=O` [Example 194], for which the LogP was 3.6 [a].

On to `Cn1c(/C(=N\OCc2cccc(NC(=O)Cc3ccc(Cl)cc3)n2)c2ccccc2)noc1=O` [Example 196], for which the LogP was 3.92 [a].

With `Cn1c(/C(=N\OCc2csc(NC(=O)Cc3ccccc3)n2)c2cccc(F)c2)noc1=O` [Example 203], the LogP was 3.46 [a].

Turning to `CC(Oc1ccc(Br)cc1)C(=O)Nc1cccc(CO/N=C(/c2ccccc2)c2noc(=O)n2C)n1` (stereo not shown) [Example 204], the LogP was 4.46 [a].

As to `Cn1c(/C(=N\OCc2cccc(NC(=O)OCCCC(F)(F)F)n2)c2ccccc2)noc1=O` [Example 205], the LogP is 3.85 [a].

Regarding `Cc1ccccc1OCC(=O)Nc1nc(CO/N=C(/c2ccccc2)c2noc(=O)n2C)cs1` [Example 213], the lipophilicity (LogP) was 3.85 [a].

As for `CC(C)(C)OC(=O)Nc1cccc(CO/N=C(/c2ccc(F)cc2)c2noc(=O)[nH]2)n1` [Example 214], the LogP was 3.78 [a].
